Key:
Format in all cases: toxicity, cell-based
HEK-293T = test: Incucyte cell viability with HEK293T; details: human, 10 µM, compound concentration 10 uM
Fibroblast = test: Incucyte cell viability with human fibroblast; details: 10 µM, compound concentration 10 uM
U2OS = test: Incucyte cell viability with U2OS; details: human, 10 µM, compound concentration 10 uM
Also: unitless GR value; below 1 slowed growth and below 0 cell loss.

SMILES | Growth Rate (HEK-293T; 12 h, replicate number 1) | Growth Rate (HEK-293T; 18 h, replicate number 1) | Growth Rate (HEK-293T; 18 h, replicate number 2) | Growth Rate (HEK-293T; 24 h, replicate number 1) | Growth Rate (HEK-293T; 24 h, replicate number 2) | Growth Rate (Fibroblast; 6 h, replicate number 1) | Growth Rate (Fibroblast; 6 h, replicate number 2) | Growth Rate (Fibroblast; 12 h, replicate number 1) | Growth Rate (Fibroblast; 12 h, replicate number 2) | Growth Rate (Fibroblast; 18 h, replicate number 1) | Growth Rate (Fibroblast; 18 h, replicate number 2) | Growth Rate (U2OS; 0 h, replicate number 1) | Growth Rate (U2OS; 6 h, replicate number 1) | Growth Rate (U2OS; 24 h, replicate number 1) | Growth Rate (HEK-293T; 6 h, replicate number 1) | Growth Rate (HEK-293T; 6 h, replicate number 2) | Growth Rate (HEK-293T; 12 h, replicate number 2) | Growth Rate (Fibroblast; 0 h, replicate number 1) | Growth Rate (U2OS; 12 h, replicate number 2) | Growth Rate (U2OS; 18 h, replicate number 2) | other results
NC(=O)OC[C@H](NC(=O)Cn1nc(-c2ccc(Cl)cc2)n(C[C@H](O)C(F)(F)F)c1=O)c1cccc(C(F)(F)F)c1 | 0.8 | 0.84 | 0.83 | 0.71 | 0.79 | 0.56 | -0.17 | 0.83 | 0.75 | 0.71 | 0.65 | 0.95 | 0.83 | 0.9 |  |  |  |  |  |  | Growth Rate (HEK-293T; 0 h, replicate number 1): 0.72; Growth Rate (HEK-293T; 0 h, replicate number 2): -0.43; Growth Rate (Fibroblast; 0 h, replicate number 2): 0.27; Growth Rate (Fibroblast; 24 h, replicate number 1): 0.84; Growth Rate (Fibroblast; 24 h, replicate number 2): 0.7; Growth Rate (U2OS; 12 h, replicate number 1): 0.85
Nc1n[nH]c2nc(-c3ccc(NS(=O)(=O)c4cccc(Cl)c4Cl)cc3)cnc12 | 0.83 |  | 0.84 |  | 0.95 | -0.19 | -1 | -0.95 |  |  |  | 0.36 |  |  | 0.93 | 0.42 | 0.81 | 0.67 |  |  | Growth Rate (Fibroblast; 0 h, replicate number 2): -0.78
Fc1ccc(-c2c3cccc(C(F)(F)F)c3nn2Cc2ccc(F)cc2Cl)cc1 [LXR-623] | 0.75 | 0.77 | 0.76 | 0.91 | 0.73 | -0.18 | 0.35 | -0.03 | 0.12 | -0.12 | -0.04 |  |  |  | 0.77 | 0.3 | 0.57 |  | 0.95 | 0.94 | Growth Rate (HEK-293T; 0 h, replicate number 1): 0.13; Growth Rate (HEK-293T; 0 h, replicate number 2): -0.86; Growth Rate (Fibroblast; 24 h, replicate number 1): -0.06; Growth Rate (Fibroblast; 24 h, replicate number 2): 0.03; Growth Rate (U2OS; 0 h, replicate number 2): 0.79; Growth Rate (U2OS; 6 h, replicate number 2): 0.69; Growth Rate (U2OS; 24 h, replicate number 2): 0.9
C[C@@H](c1ccc(F)cc1)n1nnc2cnc3ccc(-c4ccc5ocnc5c4)cc3c21 |  |  |  |  |  | -0.77 | 0.8 | -0.93 |  | 0.35 |  | -0.74 |  | 0.82 |  | 0.07 | 0.99 | 0.85 |  |  | Growth Rate (Fibroblast; 0 h, replicate number 2): -0.11; Growth Rate (Fibroblast; 24 h, replicate number 1): 1; Growth Rate (U2OS; 0 h, replicate number 2): 0.17; Growth Rate (U2OS; 18 h, replicate number 1): 0.87
CCN1C(=O)c2cc(C)ccc2N(C)c2ncccc21 | 0.32 | 0.42 | 0.71 | 0.65 | 0.74 | 0.13 | 0.79 | 0.88 | 0.29 | 0.79 | 0.88 |  |  |  | 0.52 | 1 | 0.41 | -1 | 0.85 | 0.7 | Growth Rate (HEK-293T; 0 h, replicate number 1): 0.6; Growth Rate (HEK-293T; 0 h, replicate number 2): 0.45; Growth Rate (Fibroblast; 0 h, replicate number 2): -0.91; Growth Rate (U2OS; 0 h, replicate number 2): 0.61; Growth Rate (U2OS; 6 h, replicate number 2): 0.81; Growth Rate (U2OS; 12 h, replicate number 1): 0.87; Growth Rate (U2OS; 24 h, replicate number 2): 0.8
CCc1nc(-c2cccc(C)c2)c(-c2ccnc(NC(=O)c3ccccc3)c2)s1 [TAK-715] |  |  |  | 0.92 | 0.81 |  | 0.83 |  |  |  |  | -1 | 0.63 |  | 0.48 | 0.96 |  | -0.56 | 0.79 | 0.87 | Growth Rate (U2OS; 0 h, replicate number 2): 0.2; Growth Rate (U2OS; 18 h, replicate number 1): -0.35; Growth Rate (U2OS; 24 h, replicate number 2): 0.92
N=C(N)NCCC[C@@H](NC(=O)C(c1ccccc1)c1ccccc1)C(=O)NCc1ccc(CNC(N)=O)cc1.O=C(O)C(F)(F)F |  |  | 0.96 |  | 0.9 | 0.82 |  |  | 0.86 |  | 0.94 | 0.07 | 0.44 | 0.86 |  |  | 0.76 | -1 | 0.87 | 0.99 | Growth Rate (HEK-293T; 0 h, replicate number 1): 0.56; Growth Rate (Fibroblast; 0 h, replicate number 2): 0.49; Growth Rate (Fibroblast; 24 h, replicate number 2): 0.91; Growth Rate (U2OS; 12 h, replicate number 1): 0.7; Growth Rate (U2OS; 18 h, replicate number 1): 0.92
c1ccc2c(c1)SCc1c-2[nH]c2ccccc12 | -0.76 | -0.53 | -0.49 | -0.37 | -0.38 | -0.99 | -1 | -0.96 | -0.98 | -0.86 | -0.94 | -0.33 | -0.4 | -0.5 | -0.95 | -0.96 | -0.7 | -1 | -0.52 | -0.49 | Growth Rate (Fibroblast; 24 h, replicate number 1): -0.75; Growth Rate (Fibroblast; 24 h, replicate number 2): -0.84; Growth Rate (U2OS; 6 h, replicate number 2): -0.66; Growth Rate (U2OS; 12 h, replicate number 1): -0.65; Growth Rate (U2OS; 18 h, replicate number 1): -0.63; Growth Rate (U2OS; 24 h, replicate number 2): -0.42
COC(=O)c1ccc2c(c1)NC(=O)/C2=C(\Nc1ccc(-c2nccn2C)cc1)c1ccccc1 | -0.37 | -0.26 | -0.37 | -0.09 | -0.27 |  |  |  |  |  |  | -1 | 0.57 | -0.6 | -0.53 | -0.73 | -0.51 | -1 | 0.61 | 0.62 | Growth Rate (U2OS; 6 h, replicate number 2): 0.77; Growth Rate (U2OS; 12 h, replicate number 1): 0.53; Growth Rate (U2OS; 18 h, replicate number 1): 0.46; Growth Rate (U2OS; 24 h, replicate number 2): 0.46
Cl.Cl.NC1(c2ccc(-c3nc4ccn5c(=O)[nH]nc5c4cc3-c3ccccc3)cc2)CCC1 | -0.64 | -0.54 | -0.27 | -0.48 | -0.24 | -0.87 | -1 | -1 | -0.83 |  | -0.54 |  |  | 1 | -0.64 | -0.68 | -0.42 |  |  |  | Growth Rate (Fibroblast; 24 h, replicate number 2): -0.32
COc1ccc(OC)c(-c2ccc(NC(=O)c3ccncc3F)cc2)c1 |  |  |  |  |  |  | -0.75 |  | 0.93 | -0.35 |  | -0.54 | 0.57 | 0.87 |  |  |  | -0.06 | 0.84 | 0.87 | Growth Rate (HEK-293T; 0 h, replicate number 1): -0.77; Growth Rate (Fibroblast; 24 h, replicate number 2): 0.92; Growth Rate (U2OS; 0 h, replicate number 2): -0.01; Growth Rate (U2OS; 6 h, replicate number 2): 0.63; Growth Rate (U2OS; 12 h, replicate number 1): 0.56; Growth Rate (U2OS; 18 h, replicate number 1): 0.74; Growth Rate (U2OS; 24 h, replicate number 2): 0.91
O=C1NC(=NCc2cccs2)SC1=Cc1ccc2ncccc2c1 |  | 0.84 | 0.53 | 0.75 | 0.54 |  |  |  |  |  |  | -1 | 0.68 | 0.51 |  |  | 0.83 | -1 | 0.54 | 0.45 | Growth Rate (HEK-293T; 0 h, replicate number 1): -1; Growth Rate (HEK-293T; 0 h, replicate number 2): -0.11; Growth Rate (Fibroblast; 0 h, replicate number 2): -0.82; Growth Rate (U2OS; 6 h, replicate number 2): 0.87; Growth Rate (U2OS; 12 h, replicate number 1): 0.27; Growth Rate (U2OS; 18 h, replicate number 1): 0; Growth Rate (U2OS; 24 h, replicate number 2): 0.39
Cc1c(CN2CCC3(CC2)CN(c2ncnc4sc(CC(F)(F)F)cc24)C3)ccc2c1cc(C#N)n2CC(N)=O | 0.59 | 0.63 | 0.44 | 0.69 | 0.47 | -0.45 | -0.88 | -0.4 | -0.34 | -0.16 | -0.22 |  | 1 | 0.94 | 0.58 | -0.05 | 0.34 | -1 |  |  | Growth Rate (Fibroblast; 24 h, replicate number 1): -0.05; Growth Rate (Fibroblast; 24 h, replicate number 2): 0.09; Growth Rate (U2OS; 0 h, replicate number 2): 0.3
CN1CCC(F)(Cn2cnc(-c3ccc(F)cn3)c2-c2ccnc3[nH]ccc23)CC1 |  | 0.93 |  | 0.9 | 0.74 | -0.23 | 0.29 | 0.6 | 0.78 | 0.66 | 0.68 | 0.97 | 0.99 | 0.84 | 0.99 | 0.85 | 0.86 |  | 0.87 | 0.94 | Growth Rate (HEK-293T; 0 h, replicate number 1): 0.3; Growth Rate (HEK-293T; 0 h, replicate number 2): -0.77; Growth Rate (Fibroblast; 24 h, replicate number 1): 0.81; Growth Rate (Fibroblast; 24 h, replicate number 2): 0.8; Growth Rate (U2OS; 6 h, replicate number 2): 0.77; Growth Rate (U2OS; 12 h, replicate number 1): 0.8; Growth Rate (U2OS; 18 h, replicate number 1): -0.61; Growth Rate (U2OS; 24 h, replicate number 2): 0.68
